Assay [1] has as its target T1, Rat recombinant TRPM8 (Rattus norvegicus, UniProt Q8R455).
T1 construct: expressed in transfected cells; host or cells: HEK293 (TRPM8-HEK-293, gift from Mario van der Stelt)
As to the kind of experiment: TRP channel [Ca2+]i assay. Conditions: agonist. The format is cell-based.

The target of assay [2] is T2, MAGL (Homo sapiens, UniProt Q99685).
T2 construct: expressed in transfected cells; host or cells: HEK293T (transient), membrane preparation
T2 sequence (Q99685 1-303): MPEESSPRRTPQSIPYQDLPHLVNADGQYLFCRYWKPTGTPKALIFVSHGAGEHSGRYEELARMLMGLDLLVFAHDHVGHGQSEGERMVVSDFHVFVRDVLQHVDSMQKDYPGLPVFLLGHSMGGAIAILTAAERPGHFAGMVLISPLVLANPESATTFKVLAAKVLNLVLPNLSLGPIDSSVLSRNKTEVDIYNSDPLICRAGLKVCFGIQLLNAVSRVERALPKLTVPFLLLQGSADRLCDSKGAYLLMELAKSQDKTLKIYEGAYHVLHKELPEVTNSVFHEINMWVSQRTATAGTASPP
As to the kind of experiment: Biochemical MAGL activity assay. Conditions: 10 µM. The protocol:
(§1) Cell culture and membrane preparation were performed as previously described. HEK293T cells (source: Dutch Cancer Institute) were grown in DMEM with stable glutamine and phenolred (PAA), 10% New Born Calf serum, penicillin and streptomycin. Cells were passaged every 2–3 days by resuspending in medium and seeding them to appropriate confluence. Membranes were prepared from transiently transfected HEK293T cells. One day prior to transfection 10^7 cells were seeded in a 15 cm petri dish. Cells were transfected by the addition of a 3:1 mixture of polyethyleneimine (60 μg) and plasmid DNA (20 μg) in 2 ml serum-free medium. The medium was refreshed after 24 h, and after 72 h the cells were harvested by suspending them in 20 ml medium. The suspension was centrifuged for 10 min at 1000, rpm, and the supernatant was removed. The cell pellet was stored at −80 °C until use. Cell pellets were thawed on ice and suspended in lysis buffer A (20 mM HEPES, 2 mM DTT, 0.25 M sucrose, 1 mM MgCl2, […] Benzonase). The suspension was homogenized by polytrone (3 × 7 s) and incubated for 30 min on ice. The suspension was subjected to ultracentrifugation (100,000 × g, 30 min, 4 °C, Beckman Coulter, Type Ti70 rotor) to yield the cytosolic fraction in the supernatant and the membrane fraction as a pellet. The pellet was resuspended in lysis buffer B (20 mM HEPES, 2 mM DTT). The protein concentration was determined with Quick Start Bradford assay (Biorad). The protein fractions were diluted to a total protein concentration of 1 mg ml^−1 and stored in small aliquots at −80 °C until use.
Percentage of inhibition of reference ligands was determined in comparison with an untreated control. […] Fluorescence was measured in 5 min intervals for 60 min.

For assay [3], the target named is T3, hDAGL-α (Homo sapiens, UniProt Q9Y4D2).
T3 construct: expressed in transfected cells; host or cells: HEK293T (transient), membrane preparation
T3 sequence (Q9Y4D2 1-1042): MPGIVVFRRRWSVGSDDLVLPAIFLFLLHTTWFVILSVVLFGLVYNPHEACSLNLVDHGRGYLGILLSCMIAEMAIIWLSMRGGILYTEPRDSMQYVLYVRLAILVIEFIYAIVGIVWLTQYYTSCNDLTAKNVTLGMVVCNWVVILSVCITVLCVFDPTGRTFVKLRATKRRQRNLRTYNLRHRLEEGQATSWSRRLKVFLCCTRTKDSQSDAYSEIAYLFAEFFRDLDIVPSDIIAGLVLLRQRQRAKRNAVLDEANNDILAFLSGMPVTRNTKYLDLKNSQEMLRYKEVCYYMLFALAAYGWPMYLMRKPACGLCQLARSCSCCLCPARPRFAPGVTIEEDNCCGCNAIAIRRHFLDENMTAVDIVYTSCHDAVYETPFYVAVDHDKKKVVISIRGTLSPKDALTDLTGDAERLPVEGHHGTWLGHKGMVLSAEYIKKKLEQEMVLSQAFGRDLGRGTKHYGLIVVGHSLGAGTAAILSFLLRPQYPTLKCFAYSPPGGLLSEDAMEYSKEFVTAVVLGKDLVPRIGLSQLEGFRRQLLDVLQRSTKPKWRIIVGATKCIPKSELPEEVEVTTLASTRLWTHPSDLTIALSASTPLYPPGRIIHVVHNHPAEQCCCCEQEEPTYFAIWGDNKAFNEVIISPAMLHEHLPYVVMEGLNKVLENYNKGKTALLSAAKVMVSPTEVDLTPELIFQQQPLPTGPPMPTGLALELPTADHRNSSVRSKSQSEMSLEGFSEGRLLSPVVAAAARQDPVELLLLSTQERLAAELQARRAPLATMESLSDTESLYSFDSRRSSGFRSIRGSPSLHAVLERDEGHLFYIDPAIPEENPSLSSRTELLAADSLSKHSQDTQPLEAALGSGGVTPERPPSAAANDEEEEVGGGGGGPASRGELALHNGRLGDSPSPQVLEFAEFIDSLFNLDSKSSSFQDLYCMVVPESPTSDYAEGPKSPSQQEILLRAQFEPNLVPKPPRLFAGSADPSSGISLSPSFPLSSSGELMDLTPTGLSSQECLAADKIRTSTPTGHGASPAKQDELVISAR
As to the kind of experiment: Biochemical DAGLα activity assay. Conditions: 10 µM. The protocol: as §1
hDAGL-α activity was measured by the extent of the hydrolysis of para-nitrophenylbutyrate (PNP-butyrate) by membrane preparations from HEK293T cells (source: Dutch Cancer Institute) transiently transfected with hDAGL-α (ref. [43]). Percentage of inhibition of reference ligands was determined in comparison with an untreated control. Reactions were performed in 50 mM pH 7.2 HEPES buffer with 0.05 μg μl^−1 final protein concentration hDAGL-α transfected protein.

For assay [4], the target named is T4, human NAPE-PLD (Homo sapiens, UniProt Q6IQ20).
T4 construct: Full length human cDNA NAPE-PLD was obtained from Natsuo Ueda; expressed in transfected cells; host or cells: HEK293T (transient), membrane fraction
The assay can be described thus: NAPE-PLD inhibition. The assay is classed as biochemical. Conditions: 10 µM. The protocol:
Full length human cDNA NAPE-PLD was obtained from Natsuo Ueda[58] and cloned into mammalian expression vector pcDNA3.1, containing a C-terminal Flag-tag and genes for ampicillin and neomycin resistance. All plasmids were grown in XL-10 Z-competent cells and prepped (Maxi Prep, Qiagen). Sequence analysis for the confirmation of the sequences was performed at the Leiden Genome Technology Centre.
HEK293T cells (source: Dutch Cancer Institute) were cultured at 37 °C and 7% CO2 in DMEM with glutamax, penicillin (100 μg ml^−1), streptomycin (100 μg ml^−1) and 10% New Born Calf Serum iron supplemented (Hyclone SH30072.03). Cells were passaged twice a week to appropriate confluence. Twenty-four hours before transfection 10^7 cells were seeded on a 15 cm dish. Two hours before transfection, the medium was refreshed. Transfection is performed with PEI in a ratio of 3:1 with human NAPE-PLD or Mock pcDNA3.1Neo, 20 μg per dish. Medium is refreshed after 24 h and cells are harvested after 72 h. Cell suspensions are centrifuged at 1,000g for 10 min, supernatant removed and pellets frozen at −80 °C until further use.
Cell pellets are re-suspended in lysis buffer 1: 20 mM Hepes, 2 mM DTT, 0.25 M sucrose, 1 mM MgCl2, 2.5 U ml^−1 benzonase and incubated 30 min on ice. The cytosolic fraction (supernatant) is separated from the membranes by ultra-centrifugation (32,000 rpm for 30 min 100,000g). The pellet is resuspended in buffer 2: 20 mM Hepes, 2 mM DTT (membrane fraction). All samples are stored at −80 °C. Enzyme concentrations are determined using a Bradford assay.
The membrane protein fraction from transient overexpression of NAPE-PLD in HEK293T cells was diluted to 0.4 mg ml^−1 in assay buffer: 50 mM Tris-HCl (pH 7.5), 0.02% Triton X-100, 150 mM NaCl (ref. [60]). […] Relevant concentrations of compounds are prepared in DMSO. The assay is performed in a dark Greiner 96-well plate, end volume 100 μl. The compound or DMSO is incubated with membrane protein lysate (final concentration 0.04 mg ml^−1) for 30 min at 37 °C. A sample without membrane protein lysate is incorporated for background subtraction. Then, substrate is added (final concentration 1 μM) and the measurement is started immediately on a TECAN infinite M1000 pro at 37 °C (excitation 485 nm, emission 535 nm), scanning every 2 min for 1 h.

T1 sequence (Q8R455 whole entry): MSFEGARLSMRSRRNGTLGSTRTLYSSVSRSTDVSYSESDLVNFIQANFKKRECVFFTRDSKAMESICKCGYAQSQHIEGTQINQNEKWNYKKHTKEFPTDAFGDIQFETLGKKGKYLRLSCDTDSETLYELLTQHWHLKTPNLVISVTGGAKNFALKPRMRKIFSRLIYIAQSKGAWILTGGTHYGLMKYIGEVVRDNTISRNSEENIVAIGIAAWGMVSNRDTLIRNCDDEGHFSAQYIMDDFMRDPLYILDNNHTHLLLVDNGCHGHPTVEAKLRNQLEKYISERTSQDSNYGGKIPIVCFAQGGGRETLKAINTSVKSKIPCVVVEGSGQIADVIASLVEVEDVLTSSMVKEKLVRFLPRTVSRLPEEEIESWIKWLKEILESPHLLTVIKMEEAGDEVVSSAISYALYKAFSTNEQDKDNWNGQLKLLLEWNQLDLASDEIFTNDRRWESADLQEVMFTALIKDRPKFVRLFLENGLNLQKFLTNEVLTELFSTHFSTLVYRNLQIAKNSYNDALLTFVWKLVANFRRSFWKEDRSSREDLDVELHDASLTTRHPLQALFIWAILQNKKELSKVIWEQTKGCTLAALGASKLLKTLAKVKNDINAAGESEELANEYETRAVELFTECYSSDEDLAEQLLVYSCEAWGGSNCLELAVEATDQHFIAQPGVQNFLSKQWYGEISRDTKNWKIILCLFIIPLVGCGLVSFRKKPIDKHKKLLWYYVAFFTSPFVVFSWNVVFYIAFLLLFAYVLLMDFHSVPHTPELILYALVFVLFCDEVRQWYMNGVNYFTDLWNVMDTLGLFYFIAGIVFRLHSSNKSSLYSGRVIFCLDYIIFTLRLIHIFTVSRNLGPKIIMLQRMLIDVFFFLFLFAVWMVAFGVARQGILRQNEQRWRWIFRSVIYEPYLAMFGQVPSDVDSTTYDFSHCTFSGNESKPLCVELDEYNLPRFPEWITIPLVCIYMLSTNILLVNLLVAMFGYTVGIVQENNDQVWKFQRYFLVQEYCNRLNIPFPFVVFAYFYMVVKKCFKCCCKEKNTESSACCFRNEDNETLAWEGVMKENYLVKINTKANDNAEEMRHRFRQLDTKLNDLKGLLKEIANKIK
T4 sequence (Q6IQ20 whole entry): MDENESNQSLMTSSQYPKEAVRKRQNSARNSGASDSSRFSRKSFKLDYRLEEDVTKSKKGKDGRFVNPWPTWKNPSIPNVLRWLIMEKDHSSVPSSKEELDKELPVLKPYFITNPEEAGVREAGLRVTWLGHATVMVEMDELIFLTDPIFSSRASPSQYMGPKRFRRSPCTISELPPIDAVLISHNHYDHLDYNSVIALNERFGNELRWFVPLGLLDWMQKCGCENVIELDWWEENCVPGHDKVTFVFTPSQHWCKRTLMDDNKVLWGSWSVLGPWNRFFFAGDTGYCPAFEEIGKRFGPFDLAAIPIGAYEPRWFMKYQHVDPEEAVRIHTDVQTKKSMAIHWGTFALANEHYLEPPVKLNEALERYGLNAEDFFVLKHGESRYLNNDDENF

With `O=C1NC(c2cccc([N+](=O)[O-])c2)=CCN1c1ccccc1O` [icilin], in assay [1], the TRPM8 efficacy came out at 75.1±1.1. Moreover, in assay [1] (read-out: TRPM8 potency EC50), the concentration for a half-maximal effect (EC50) worked out at 110 ± 10 nM.
As for `CCCCCc1cc(O)c2c(c1)OC(C)(C)[C@@H]1CCC(C)=C[C@@H]21` [Δ9-THC, Δ^9-tetrahydrocannabinol], the “MAGL % inhibition at 10 µM ± SD” value in assay [2] is recorded as 7 ± 17%. Moreover, the “DAGL % inhibition at 10 µM ± SD” value in assay [3] is -9 ± 12%. The “NAPE-PLD % inhibition at 10 µM ± SD” value in assay [4] is given as 0 ± 12%.

One may read the EC50 as the concentration giving half of the maximal effect.

The values above are taken from article PMC5216056 (Nature Communications, 2017).
